US8952024B2, “Herbicidal pyrimidone derivatives” (E I du Pont de Nemours and Company, priority 2009, dated 2015)

The compounds below were run on galium (catchweed bedstraw, Galium aparine) (assay: Test B pre-/postemergence plant response). Conditions: 250 g ai/ha, Preemergence, 0 to 100 scale.
Assay type: in vivo
In short: (§1)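 Seeds were sown in loam soil/sand blend and treated preemergence with compound in non-phytotoxic solvent mixture containing surfactant; postemergence sprays, same formulation, went onto plants 2 to 18 cm (1- to 4-leaf stage) in peat-based planting medium. Greenhouse 13 to 15 days, then visual rating versus untreated controls, 0 (no effect) to 100 (complete control).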

Question: How did the “Plant response rating, Galium” value turn out when Cc1cccc(Cl)c1-n1c(-c2ccccc2)ncc(C(=O)C2=C(O)CCCC2=O)c1=O [Compound 46] was run?
Answer: 70

Question: With Cc1ccccc1-n1c(-c2cccc(Cl)c2)ncc(C(=O)C2=C(O)CCCC2=O)c1=O [Compound 36] as the compound, how does the “Plant response rating, Galium” value read?
Answer: 95

Question: Which “Plant response rating, Galium” value does the source give for CCCCc1ncc(C(=O)C2=C(O)CCCC2=O)c(=O)n1-c1cccc(C)c1 [Compound 63] here?
Answer: 20

Question: O=C1CCCC(O)=C1C(=O)c1cnc(-c2cccc(Cl)c2)n(-c2ccc(Cl)cc2)c1=O [Compound 64] was tested. Which “Plant response rating, Galium” value did it give?
Answer: 70

Question: Which “Plant response rating, Galium” value does the source give for O=C1CCCC(O)=C1C(=O)c1cnc(-c2ccsc2)n(-c2ccccc2)c1=O [Compound 56] here?
Answer: 85

Same assay, conditions: Preemergence, 31 g ai/ha; scale 0 to 100 (0 no effect, 100 complete control)

Question: How did the “Plant response rating, Galium” value turn out when Cc1cccc(Cl)c1-n1c(-c2ccccc2)ncc(C(=O)C2=C(O)CCCC2=O)c1=O [Compound 46] was run?
Answer: 0

Question: Cc1ccccc1-n1c(-c2cccc(Cl)c2)ncc(C(=O)C2=C(O)CCCC2=O)c1=O [Compound 36] was tested. Which “Plant response rating, Galium” value did it give?
Answer: 10

Question: CCCCc1ncc(C(=O)C2=C(O)CCCC2=O)c(=O)n1-c1cccc(C)c1 [Compound 63] was tested. Which “Plant response rating, Galium” value did it give?
Answer: 0

Question: For O=C1CCCC(O)=C1C(=O)c1cnc(-c2cccc(Cl)c2)n(-c2ccc(Cl)cc2)c1=O [Compound 64], which “Plant response rating, Galium” value is on record?
Answer: 0

Question: O=C1CCCC(O)=C1C(=O)c1cnc(-c2ccsc2)n(-c2ccccc2)c1=O [Compound 56] was tested. Which “Plant response rating, Galium” value did it give?
Answer: 0

Same assay, conditions: Preemergence, 62 g ai/ha; scale 0 to 100 (0 no effect, 100 complete control)

Question: Cc1cccc(Cl)c1-n1c(-c2ccccc2)ncc(C(=O)C2=C(O)CCCC2=O)c1=O [Compound 46] was tested. Which “Plant response rating, Galium” value did it give?
Answer: 0

Question: Which “Plant response rating, Galium” value does the source give for Cc1ccccc1-n1c(-c2cccc(Cl)c2)ncc(C(=O)C2=C(O)CCCC2=O)c1=O [Compound 36] here?
Answer: 80

Question: With CCCCc1ncc(C(=O)C2=C(O)CCCC2=O)c(=O)n1-c1cccc(C)c1 [Compound 63] as the compound, how does the “Plant response rating, Galium” value read?
Answer: 0

Question: Which “Plant response rating, Galium” value does the source give for O=C1CCCC(O)=C1C(=O)c1cnc(-c2cccc(Cl)c2)n(-c2ccc(Cl)cc2)c1=O [Compound 64] here?
Answer: 0

Question: How did the “Plant response rating, Galium” value turn out when O=C1CCCC(O)=C1C(=O)c1cnc(-c2ccsc2)n(-c2ccccc2)c1=O [Compound 56] was run?
Answer: 0

Same assay, conditions: Preemergence, 125 g ai/ha; 0 to 100 scale

Question: For Cc1cccc(Cl)c1-n1c(-c2ccccc2)ncc(C(=O)C2=C(O)CCCC2=O)c1=O [Compound 46], which “Galium plant response rating” value is on record?
Answer: 0

Question: Which “Galium plant response rating” value does the source give for Cc1ccccc1-n1c(-c2cccc(Cl)c2)ncc(C(=O)C2=C(O)CCCC2=O)c1=O [Compound 36] here?
Answer: 80

Same assay, conditions: Preemergence, 125 g ai/ha; scale 0 to 100, 0 no effect, 100 complete control

Question: With CCCCc1ncc(C(=O)C2=C(O)CCCC2=O)c(=O)n1-c1cccc(C)c1 [Compound 63] as the compound, how does the “Plant response rating, Galium” value read?
Answer: 0

Question: O=C1CCCC(O)=C1C(=O)c1cnc(-c2cccc(Cl)c2)n(-c2ccc(Cl)cc2)c1=O [Compound 64] was tested. Which “Plant response rating, Galium” value did it give?
Answer: 30

Question: For O=C1CCCC(O)=C1C(=O)c1cnc(-c2ccsc2)n(-c2ccccc2)c1=O [Compound 56], which “Plant response rating, Galium” value is on record?
Answer: 60

These compounds were tested on nightshade (eastern black nightshade, Solanum ptycanthum) (assay: Test B pre-/postemergence plant response). Conditions: 250 g ai/ha, Preemergence, 0 to 100 scale.
Assay type: in vivo
In short: as §1

Question: Which “Plant response rating, Nightshade” value does the source give for Cc1cccc(Cl)c1-n1c(-c2ccccc2)ncc(C(=O)C2=C(O)CCCC2=O)c1=O [Compound 46] here?
Answer: 98

Question: Cc1ccccc1-n1c(-c2cccc(Cl)c2)ncc(C(=O)C2=C(O)CCCC2=O)c1=O [Compound 36] was tested. Which “Plant response rating, Nightshade” value did it give?
Answer: 98

Same assay, conditions: Preemergence, 31 g ai/ha; scale 0 to 100 (0 no effect, 100 complete control)

Question: How did the “Plant response rating, Nightshade” value turn out when Cc1cccc(Cl)c1-n1c(-c2ccccc2)ncc(C(=O)C2=C(O)CCCC2=O)c1=O [Compound 46] was run?
Answer: 95

Question: With Cc1ccccc1-n1c(-c2cccc(Cl)c2)ncc(C(=O)C2=C(O)CCCC2=O)c1=O [Compound 36] as the compound, how does the “Plant response rating, Nightshade” value read?
Answer: 80

Question: CCCCc1ncc(C(=O)C2=C(O)CCCC2=O)c(=O)n1-c1cccc(C)c1 [Compound 63] was tested. Which “Plant response rating, Nightshade” value did it give?
Answer: 80

Question: For O=C1CCCC(O)=C1C(=O)c1cnc(-c2cccc(Cl)c2)n(-c2ccc(Cl)cc2)c1=O [Compound 64], which “Plant response rating, Nightshade” value is on record?
Answer: 55

Question: For O=C1CCCC(O)=C1C(=O)c1cnc(-c2ccsc2)n(-c2ccccc2)c1=O [Compound 56], which “Plant response rating, Nightshade” value is on record?
Answer: 85

Same assay, conditions: Preemergence, 62 g ai/ha; scale 0 to 100 (0 no effect, 100 complete control)

Question: For Cc1cccc(Cl)c1-n1c(-c2ccccc2)ncc(C(=O)C2=C(O)CCCC2=O)c1=O [Compound 46], which “Plant response rating, Nightshade” value is on record?
Answer: 95

Question: Cc1ccccc1-n1c(-c2cccc(Cl)c2)ncc(C(=O)C2=C(O)CCCC2=O)c1=O [Compound 36] was tested. Which “Plant response rating, Nightshade” value did it give?
Answer: 95

Question: For CCCCc1ncc(C(=O)C2=C(O)CCCC2=O)c(=O)n1-c1cccc(C)c1 [Compound 63], which “Plant response rating, Nightshade” value is on record?
Answer: 95

Question: O=C1CCCC(O)=C1C(=O)c1cnc(-c2cccc(Cl)c2)n(-c2ccc(Cl)cc2)c1=O [Compound 64] was tested. Which “Plant response rating, Nightshade” value did it give?
Answer: 85

Question: O=C1CCCC(O)=C1C(=O)c1cnc(-c2ccsc2)n(-c2ccccc2)c1=O [Compound 56] was tested. Which “Plant response rating, Nightshade” value did it give?
Answer: 98

Same assay, conditions: Preemergence, 125 g ai/ha; 0 to 100 scale

Question: Which “Nightshade plant response rating” value does the source give for Cc1cccc(Cl)c1-n1c(-c2ccccc2)ncc(C(=O)C2=C(O)CCCC2=O)c1=O [Compound 46] here?
Answer: 98

Question: Which “Nightshade plant response rating” value does the source give for Cc1ccccc1-n1c(-c2cccc(Cl)c2)ncc(C(=O)C2=C(O)CCCC2=O)c1=O [Compound 36] here?
Answer: 95

Same assay, conditions: Preemergence, 125 g ai/ha; scale 0 to 100, 0 no effect, 100 complete control

Question: Which “Plant response rating, Nightshade” value does the source give for CCCCc1ncc(C(=O)C2=C(O)CCCC2=O)c(=O)n1-c1cccc(C)c1 [Compound 63] here?
Answer: 98

Question: How did the “Plant response rating, Nightshade” value turn out when O=C1CCCC(O)=C1C(=O)c1cnc(-c2cccc(Cl)c2)n(-c2ccc(Cl)cc2)c1=O [Compound 64] was run?
Answer: 95

Question: How did the “Plant response rating, Nightshade” value turn out when O=C1CCCC(O)=C1C(=O)c1cnc(-c2ccsc2)n(-c2ccccc2)c1=O [Compound 56] was run?
Answer: 98

What follows are compounds tested on sunflower (common oilseed sunflower, Helianthus annuus) (assay: Test B pre-/postemergence plant response). Conditions: 250 g ai/ha, Preemergence, 0 to 100 scale.
Assay type: in vivo
In short: as §1

Question: For Cc1cccc(Cl)c1-n1c(-c2ccccc2)ncc(C(=O)C2=C(O)CCCC2=O)c1=O [Compound 46], which “Plant response rating, Sunflower” value is on record?
Answer: 60

Question: How did the “Plant response rating, Sunflower” value turn out when Cc1ccccc1-n1c(-c2cccc(Cl)c2)ncc(C(=O)C2=C(O)CCCC2=O)c1=O [Compound 36] was run?
Answer: 85

Same assay, conditions: Preemergence, 31 g ai/ha; scale 0 to 100 (0 no effect, 100 complete control)

Question: Cc1cccc(Cl)c1-n1c(-c2ccccc2)ncc(C(=O)C2=C(O)CCCC2=O)c1=O [Compound 46] was tested. Which “Plant response rating, Sunflower” value did it give?
Answer: 0

Question: Which “Plant response rating, Sunflower” value does the source give for Cc1ccccc1-n1c(-c2cccc(Cl)c2)ncc(C(=O)C2=C(O)CCCC2=O)c1=O [Compound 36] here?
Answer: 0

Question: CCCCc1ncc(C(=O)C2=C(O)CCCC2=O)c(=O)n1-c1cccc(C)c1 [Compound 63] was tested. Which “Plant response rating, Sunflower” value did it give?
Answer: 5

Question: With O=C1CCCC(O)=C1C(=O)c1cnc(-c2cccc(Cl)c2)n(-c2ccc(Cl)cc2)c1=O [Compound 64] as the compound, how does the “Plant response rating, Sunflower” value read?
Answer: 0

Question: For O=C1CCCC(O)=C1C(=O)c1cnc(-c2ccsc2)n(-c2ccccc2)c1=O [Compound 56], which “Plant response rating, Sunflower” value is on record?
Answer: 0

Same assay, conditions: Preemergence, 62 g ai/ha; scale 0 to 100 (0 no effect, 100 complete control)

Question: For CCCCc1ncc(C(=O)C2=C(O)CCCC2=O)c(=O)n1-c1cccc(C)c1 [Compound 63], which “Plant response rating, Sunflower” value is on record?
Answer: 15

Question: O=C1CCCC(O)=C1C(=O)c1cnc(-c2cccc(Cl)c2)n(-c2ccc(Cl)cc2)c1=O [Compound 64] was tested. Which “Plant response rating, Sunflower” value did it give?
Answer: 0

Question: With O=C1CCCC(O)=C1C(=O)c1cnc(-c2ccsc2)n(-c2ccccc2)c1=O [Compound 56] as the compound, how does the “Plant response rating, Sunflower” value read?
Answer: 60

Same assay, conditions: Preemergence, 125 g ai/ha; 0 to 100 scale

Question: Which “Sunflower plant response rating” value does the source give for Cc1cccc(Cl)c1-n1c(-c2ccccc2)ncc(C(=O)C2=C(O)CCCC2=O)c1=O [Compound 46] here?
Answer: 0

Question: Which “Sunflower plant response rating” value does the source give for Cc1ccccc1-n1c(-c2cccc(Cl)c2)ncc(C(=O)C2=C(O)CCCC2=O)c1=O [Compound 36] here?
Answer: 55

Same assay, conditions: Preemergence, 125 g ai/ha; scale 0 to 100, 0 no effect, 100 complete control

Question: CCCCc1ncc(C(=O)C2=C(O)CCCC2=O)c(=O)n1-c1cccc(C)c1 [Compound 63] was tested. Which “Plant response rating, Sunflower” value did it give?
Answer: 20

Question: O=C1CCCC(O)=C1C(=O)c1cnc(-c2cccc(Cl)c2)n(-c2ccc(Cl)cc2)c1=O [Compound 64] was tested. Which “Plant response rating, Sunflower” value did it give?
Answer: 0

Question: O=C1CCCC(O)=C1C(=O)c1cnc(-c2ccsc2)n(-c2ccccc2)c1=O [Compound 56] was tested. Which “Plant response rating, Sunflower” value did it give?
Answer: 65
